# Experimental data reported in patent US11136311B2, “Heteroaromatic derivatives as NIK inhibitors” (Janssen Pharmaceutica NV, priority 2016, dated 2021).
# Read-outs that look alike come from different tables or passages of the source.
# Legend:
# [1] = tested on: JJN-3 cells; test: Antiproliferative activity on JJN-3 (NIK translocated) multiple myeloma cells (CellTiter-Glo); assay type: cell-based, human; settings: JJN-3 (NIK translocated) cells, 96 hr, averaged values, read-out: JJN-3 Proliferation inhibition (IC50 (nM))
# Protocol: (§1) Determination of antiproliferative activity on JJN-3 (NIK translocated) and KMS12-BM (NIK WT) multiple myeloma cells
# (§2) All compounds tested were dissolved in DMSO and further dilutions were made in culture medium. Final DMSO concentration was 0.3% (v/v) in cell proliferation assays. Viability was assessed using CellTiter-Glo cell viability assay kit (Promega). The human JJN-3 and KMS12-BM cells (DSMZ) were cultured in RPMI 1640 medium supplemented with 2 mM L-glutamine, and 10% fetal calf serum (PAA). Cells were routinely kept as suspension cells at 37° C. in a humidified 5% CO2 atmosphere. Cells were passaged at a seeding density of 0.2×10^6/ml twice a week. Cells were seeded in black tissue culture treated 96-well plates (Perkin Elmer). Densities used for plating ranged from 15000 (JJN3) to 20000 (KMS12BM) cells per well in a total volume of 135 μl medium. Drugs and/or solvents were added (15 μl) to a final volume of 150 μl. Following 96 hr of treatment, plates were removed from the incubator and allowed to equilibrate to room temperature for approx 10 min. 75 μl CellTiter-Glo reagent was added to each well that was then covered (Perkin Elmer Topseal) and shaken on plate shaker for 10 min. Luminescence was measured on a HTS Topcount (Perkin Elmer). Within an experiment, the results for each treatment were the mean of 2 replicate wells. For initial screening purposes, compounds were tested using a 9 point dilution curve (serial 1:3 dilutions). For each experiment, controls (containing no drug) and a blank incubation (containing cells read at the time of compound addition) were run in parallel. The blank value was subtracted from all control and sample values. For each sample, the mean value for cell growth (in relative light units) was expressed as a percentage of the mean value for cell growth of the control.
# [2] = tested on: KMS12-BM cells; test: Antiproliferative activity on KMS12-BM (NIK WT) multiple myeloma cells (CellTiter-Glo); assay type: cell-based, human; settings: KMS12-BM (NIK WT) cells, 96 hr, averaged values, read-out: KMS-12 Proliferation inhibition (IC50 (nM))
# Protocol: as §1, §2
# [3] = target: recombinant human NF-kappaB-inducing kinase (NIK/MAP3K14) (Homo sapiens (Human), UniProt Q99558); test: Inhibition of auto-phosphorylation of recombinant human NIK/MAP3K14 activity (AlphaScreen); assay type: biochemical; settings: averaged values over all measurements on all batches
# Protocol: Inhibition of auto-phosphorylation of recombinant human NF-kappaB-inducing kinase (NIK/MAP3K14) activity (AlphaScreen®)
# NIK/MAP3K14 auto-phosphorylation activity was measured using the AlphaScreen® (αscreen) format (Perkin Elmer). All compounds tested were dissolved in dimethyl sulfoxide (DMSO) and further dilutions were made in assay buffer. Final DMSO concentration was 1% (v/v) in assays. Assay buffer was 50 mM Tris pH 7.5 containing 1 mM EGTA (ethylene glycol tetraacetic acid), 1 mM DTT (dithiothreitol), 0.1 mM Na3VO4, 5 mM MgCl2, 0.01% Tween® 20. Assays were carried out in 384 well Alphaplates (Perkin Elmer). Incubations consisted of compound, 25 microM Adenosine-5′-triphosphate (ATP), and 0.2 nM NIK/MAP3K14. Incubations were initiated by addition of GST-tagged NIK/MAP3K14 enzyme, carried out for 1 h at 25° C. and terminated by addition of stop buffer containing anti-phospho-IKK Ser176/180 antibody. Protein A Acceptor and Glutathione-Donor beads were added before reading using an EnVision® Multilabel Plate Reader (Perkin Elmer). Signal obtained in the wells containing blank samples was subtracted from all other wells and IC50's were determined by fitting a sigmoidal curve to % inhibition of control versus Log10 compound concentration.
# recombinant human NF-kappaB-inducing kinase (NIK/MAP3K14), sequence (Q99558 whole entry): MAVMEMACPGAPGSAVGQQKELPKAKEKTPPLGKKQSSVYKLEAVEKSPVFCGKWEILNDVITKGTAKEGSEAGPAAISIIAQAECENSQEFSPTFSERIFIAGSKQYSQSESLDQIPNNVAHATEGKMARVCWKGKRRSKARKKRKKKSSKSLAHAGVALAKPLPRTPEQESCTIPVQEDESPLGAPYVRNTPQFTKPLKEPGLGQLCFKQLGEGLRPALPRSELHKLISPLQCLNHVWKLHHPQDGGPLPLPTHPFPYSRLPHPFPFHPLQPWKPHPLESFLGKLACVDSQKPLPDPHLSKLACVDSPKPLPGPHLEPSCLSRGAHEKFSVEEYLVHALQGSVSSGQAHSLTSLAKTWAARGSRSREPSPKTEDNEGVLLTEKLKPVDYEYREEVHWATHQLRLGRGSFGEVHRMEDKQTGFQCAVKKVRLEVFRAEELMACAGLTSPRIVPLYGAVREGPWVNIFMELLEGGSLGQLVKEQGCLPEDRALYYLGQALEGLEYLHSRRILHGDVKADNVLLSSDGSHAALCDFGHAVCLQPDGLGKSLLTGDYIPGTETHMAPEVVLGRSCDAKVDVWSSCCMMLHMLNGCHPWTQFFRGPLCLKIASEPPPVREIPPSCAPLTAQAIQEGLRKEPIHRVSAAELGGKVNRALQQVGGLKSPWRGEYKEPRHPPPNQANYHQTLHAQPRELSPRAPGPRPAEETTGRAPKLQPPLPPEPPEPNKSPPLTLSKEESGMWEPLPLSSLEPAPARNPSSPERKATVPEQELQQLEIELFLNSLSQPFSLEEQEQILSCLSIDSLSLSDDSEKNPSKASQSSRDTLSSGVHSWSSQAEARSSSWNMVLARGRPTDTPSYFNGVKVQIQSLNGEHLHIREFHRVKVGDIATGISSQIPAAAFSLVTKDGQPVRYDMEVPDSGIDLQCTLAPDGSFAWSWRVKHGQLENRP
SMILES,"IC50 ([1]; Homo sapiens, JJN-3, 96 h) [nM]","IC50 ([2]; Homo sapiens, KMS-12-BM, 96 h) [nM]",IC50 [3] [nM],IC50 [2] [nM],IC50 [1] [nM]
Cc1cc(Nc2nccc(-c3cc(C#N)c4c(c3)[C@@](C)(CO)CN4)n2)n(C2CCS(=O)(=O)C2)n1 (mixture of isomers) [Compound 33],1260,~6170,9.1,,
"Cc1cc(Nc2nccc(-c3cc(C#N)c4c(c3)[C@@](C)(CO)CN4)n2)n(CC2CCCO2)n1 (single isomer, unassigned) [Compound 51]",~59,,4.1,~1900,
"Cc1cc(Nc2nccc(-c3cc(C#N)c4c(c3)[C@@](C)(CO)CN4)n2)n(CC2CCCO2)n1 (single isomer, unassigned) [Compound 52]",,,6.9,> 10000,115
"Cc1cc(Nc2nccc(-c3cc(C#N)c4c(c3)[C@@](C)(CO)CN4)n2)n(CC2CCCCO2)n1 (single isomer, unassigned) [Compound 68]",,> 10000,5.3,,38
"Cc1cc(Nc2nccc(-c3cc(C#N)c4c(c3)[C@@](C)(CO)CN4)n2)n(CC2CCCCO2)n1 (single isomer, unassigned) [Compound 69]",,,5.8,> 10000,78
"COC(C)Cn1nc(C)cc1Nc1nccc(-c2cc(C#N)c3c(c2)[C@@](C)(CO)CN3)n1 (single isomer, unassigned) [Compound 77]",309,,13,1580,
"COC(C)Cn1nc(C)cc1Nc1nccc(-c2cc(C#N)c3c(c2)[C@@](C)(CO)CN3)n1 (single isomer, unassigned) [Compound 78]",,,9.8,9120,457
Cn1ccc(Nc2nccc(-c3cc(C#N)c4c(c3)C(C)(CO)CN4)n2)n1 (centres unmarked) [Compound 1],250,2430,4,,
Cc1cc(Nc2nccc(-c3cc(C#N)c4c(c3)C(C)(CO)CN4)n2)n(C)n1 (centres unmarked) [Compound 3],407,~1230,4.2,,
Cn1cc(Nc2nccc(-c3cc(C#N)c4c(c3)C(C)(CO)CN4)n2)cn1 (centres unmarked) [Compound 4],~55,162,2.5,,
Cn1nc(C2(C)COC2)cc1Nc1nccc(-c2cc(C#N)c3c(c2)C(C)(CO)CN3)n1 (centres unmarked) [Compound 5],708,> 10000,5.4,,
CC(C)(C)c1cc(Nc2nccc(-c3cc(C#N)c4c(c3)C(C)(CO)CN4)n2)n(CCO)n1 (centres unmarked) [Compound 10],724,> 10000,13,,
Cc1cc(Nc2nccc(-c3cc(C#N)c4c(c3)C(C)(CO)CN4)n2)n(CCN(C)C)n1 (centres unmarked) [Compound 11],576,3700,,,
COCCn1nc(C)cc1Nc1nccc(-c2cc(C#N)c3c(c2)C(C)(CO)CN3)n1 (centres unmarked) [Compound 14],234,~7240,7.1,,
COCCn1ccc(Nc2nccc(-c3cc(C#N)c4c(c3)C(C)(CO)CN4)n2)n1 (centres unmarked) [Compound 16],525,7080,2.8,,
CC(C)n1ccc(Nc2nccc(-c3cc(C#N)c4c(c3)C(C)(CO)CN4)n2)n1 (centres unmarked) [Compound 20],229,2510,3.4,,
Cn1nc(Nc2nccc(-c3cc(C#N)c4c(c3)C(C)(CO)CN4)n2)cc1C(=O)N1CCC(F)(F)CC1 (centres unmarked) [Compound 22],2340,> 10000,18,,
COCCCn1ccc(Nc2nccc(-c3cc(C#N)c4c(c3)C(C)(CO)CN4)n2)n1 (centres unmarked) [Compound 23],295,3890,4.9,,
Cn1nc(C(=O)NC2CCOCC2)cc1Nc1nccc(-c2cc(C#N)c3c(c2)C(C)(CO)CN3)n1 (centres unmarked) [Compound 25],1900,1510,8.1,,
COCCCn1nccc1Nc1nccc(-c2cc(C#N)c3c(c2)C(C)(CO)CN3)n1 (centres unmarked) [Compound 27],389,~4570,13,,
Cn1nc(C(=O)N2CCC(F)(F)CC2)cc1Nc1nccc(-c2cc(C#N)c3c(c2)C(C)(CO)CN3)n1 (centres unmarked) [Compound 28],2570,> 10000,~17,,
Cn1nc(Nc2nccc(-c3cc(C#N)c4c(c3)C(C)(CO)CN4)n2)cc1C1CC1 (centres unmarked) [Compound 29],~603,1440,4.4,,
CC(C)n1ccc(Nc2nccc(-c3cc(C#N)c4c(c3)[C@](C)(CO)CN4)n2)n1 [Compound 31],589,> 10000,14,,
Cc1c(Nc2nccc(-c3cc(C#N)c4c(c3)C(C)(CO)CN4)n2)cnn1C (centres unmarked) [Compound 36],174,7590,2.6,,
CN1CCC(n2ccc(Nc3nccc(-c4cc(C#N)c5c(c4)[C@@](C)(CO)CN5)n3)n2)CC1 [Compound 37],162,182,2,,
CN1CCC(n2nccc2Nc2nccc(-c3cc(C#N)c4c(c3)[C@@](C)(CO)CN4)n2)CC1 [Compound 38],3980,3890,47,,
Cn1nc(Nc2nccc(-c3cc(C#N)c4c(c3)[C@@](C)(CO)CN4)n2)cc1CN1CCOCC1 [Compound 39],1440,> 10000,32,,
Cn1nc(Cl)cc1Nc1nccc(-c2cc(C#N)c3c(c2)[C@@](C)(CO)CN3)n1 [Compound 41],78,~479,2.1,,

# Further compounds by falling IC50 [3], results first:
"IC50 ([1]; Homo sapiens, JJN-3, 96 h) [nM]","IC50 ([2]; Homo sapiens, KMS-12-BM, 96 h) [nM]",IC50 [3] [nM],IC50 [2] [nM],IC50 [1] [nM],SMILES
7760,> 10000,27,,,Cn1cc(Cl)c(Nc2nccc(-c3cc(C#N)c4c(c3)C(C)(CO)CN4)n2)n1 (centres unmarked) [Compound 32]
646,> 10000,10,,,CC(C)n1nccc1Nc1nccc(-c2cc(C#N)c3c(c2)C(C)(CO)CN3)n1 (centres unmarked) [Compound 24]
457,~2950,10,,,Cn1nc(Nc2nccc(-c3cc(C#N)c4c(c3)C(C)(CO)CN4)n2)cc1C1(C)COC1 (centres unmarked) [Compound 26]
1180,~10000,10,,,Cn1ccc(Nc2nccc(-c3cc(C#N)c4c(c3)[C@](C)(CO)CN4)n2)n1 [Compound 34]
347,> 10000,7.6,,,Cn1nc(C2CCCCC2)cc1Nc1nccc(-c2cc(C#N)c3c(c2)C(C)(CO)CN3)n1 (centres unmarked) [Compound 6]
141,794,6.9,,,Cn1nccc1Nc1nccc(-c2cc(C#N)c3c(c2)C(C)(CO)CN3)n1 (centres unmarked) [Compound 2]
~45,~214,3.6,,,CN1CCC(n2cc(Nc3nccc(-c4cc(C#N)c5c(c4)C(C)(CO)CN5)n3)cn2)CC1 (centres unmarked) [Compound 12]
47,~170,3.2,,,CC1(CO)CNc2c(C#N)cc(-c3ccnc(Nc4cnn(CC(F)F)c4)n3)cc21 (centres unmarked) [Compound 30]
813,1020,2.9,,,CC1(CO)CNc2c(C#N)cc(-c3ccnc(Nc4cc[nH]n4)n3)cc21 (centres unmarked) [Compound 21]
234,933,2.6,,,Cn1nc(Nc2nccc(-c3cc(C#N)c4c(c3)[C@@](C)(CO)CN4)n2)cc1Cl [Compound 43]
163,2720,2.2,,,Cn1ccc(Nc2nccc(-c3cc(C#N)c4c(c3)[C@@](C)(CO)CN4)n2)n1 [Compound 19]
295,562,2.2,,,C[C@]1(CO)CNc2c(C#N)cc(-c3ccnc(Nc4ccn(CC5CC5)n4)n3)cc21 [Compound 40]
